Laboratory results from patent US10294202B2, “Pyrrolidinones as herbicides” (FMC Corporation, priority 2013, dated 2019).

Columns and labels:
[1] = system: chickweed; assay: Test D pre-/postemergence herbicide test; format: in vivo, Stellaria media; conditions: for Plant response rating: Chickweed, scale 0 to 100; for Plant response rating, Chickweed: scale 0 to 100 (0 no effect, 100 complete control)
Outline: (§1)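 Plants were maintained 7 to 21 days in a controlled environment after treatment and then scored visually against controls (0 no effect, 100 complete control). Seeds in silt loam received preemergence sprays, and 1- to 4-leaf plants received postemergence sprays, both formulated in non-phytotoxic solvent with surfactant.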

[2] = system: bromegrass, downy; assay: Test D pre-/postemergence herbicide test; format: in vivo, Bromus tectorum; conditions: for Plant response rating: Bromegrass, Downy, scale 0 to 100; for Plant response rating, Bromegrass, Downy: scale 0 to 100 (0 no effect, 100 complete control)
Outline: as §1

[3] = system: lambsquarters; assay: Test D pre-/postemergence herbicide test; format: in vivo, Chenopodium album; conditions: for Plant response rating: Lambsquarters, scale 0 to 100; for Plant response rating, Lambsquarters: scale 0 to 100 (0 no effect, 100 complete control)
Outline: as §1

[4] = system: chamomile; assay: Test D pre-/postemergence herbicide test; format: in vivo, Matricaria inodora; conditions: for Plant response rating: Chamomile, scale 0 to 100; for Plant response rating, Chamomile: scale 0 to 100 (0 no effect, 100 complete control)
Outline: as §1

[5] = system: buckwheat, wild; assay: Test D pre-/postemergence herbicide test; format: in vivo, Polygonum convolvulus; conditions: for Plant response rating: Buckwheat, Wild, scale 0 to 100; for Plant response rating, Buckwheat, Wild: scale 0 to 100 (0 no effect, 100 complete control)
Outline: as §1

[6] = system: oat, wild; assay: Test D pre-/postemergence herbicide test; format: in vivo, Avena fatua; conditions: for Plant response rating: Postemergence, Oat, Wild, scale 0 to 100; for Plant response rating, Oat, Wild: Preemergence, scale 0 to 100 (0 no effect, 100 complete control)
Outline: as §1

[7] = system: velvetleaf; assay: Test E preemergence herbicide test; format: in vivo, Abutilon theophrasti; set-up: key: 0 = no effect, 100 = complete control
Outline: (§2)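 Test chemicals, formulated in a surfactant-containing non-phytotoxic solvent blend, are applied preemergence to seeded silt loam soil. After 21 days in the greenhouse, response is scored visually relative to controls, where 100 means complete control and 0 means no effect.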

[8] = system: pigweed, palmer; assay: Test E preemergence herbicide test; format: in vivo, Amaranthus palmeri; set-up: key: 0 = no effect, 100 = complete control
Outline: as §2

[9] = system: crabgrass, large; assay: Test E preemergence herbicide test; format: in vivo, Digitaria sanguinalis; set-up: key: 0 = no effect, 100 = complete control
Outline: as §2

[10] = system: goosegrass; assay: Test E preemergence herbicide test; format: in vivo, Eleusine indica; set-up: key: 0 = no effect, 100 = complete control
Outline: as §2

## O=C1NCC(c2ccc(C(F)(F)F)cc2)C1C(=O)Nc1cccc(F)c1F (stereo not shown) [Compound 80, N-(2,3-difluorophenyl)-2-oxo-4-[4-(trifluoromethyl)phenyl]-3-pyrrolidinecarboxamide]
[1]; Postemergence, 31 g ai/ha
  Plant response rating: 35
[1]; Postemergence, 62 g ai/ha
  Plant response rating: 45
[1]; Postemergence, 125 g ai/ha
  Plant response rating: 85
[1]; Postemergence, 250 g ai/ha
  Plant response rating: 85
[1]; Preemergence, 62 g ai/ha
  Plant response rating, Chickweed: 100
[1]; Preemergence, 31 g ai/ha
  Plant response rating, Chickweed: 85
[1]; Preemergence, 125 g ai/ha
  Plant response rating: 100
[1]; Preemergence, 250 g ai/ha
  Plant response rating: 100
[2]; Postemergence, 31 g ai/ha
  Plant response rating: 15
[2]; Postemergence, 62 g ai/ha
  Plant response rating: 15
[2]; Postemergence, 125 g ai/ha
  Plant response rating: 20
[2]; Postemergence, 250 g ai/ha
  Plant response rating: 20
[2]; Preemergence, 62 g ai/ha
  Plant response rating, Bromegrass, Downy: 5
[2]; Preemergence, 31 g ai/ha
  Plant response rating, Bromegrass, Downy: 0
[2]; Preemergence, 125 g ai/ha
  Plant response rating: 5
[2]; Preemergence, 250 g ai/ha
  Plant response rating: 10
[3]; Postemergence, 31 g ai/ha
  Plant response rating: 45
[3]; Postemergence, 62 g ai/ha
  Plant response rating: 45
[3]; Postemergence, 125 g ai/ha
  Plant response rating: 40
[3]; Postemergence, 250 g ai/ha
  Plant response rating: 35
[3]; Preemergence, 62 g ai/ha
  Plant response rating, Lambsquarters: 80
[3]; Preemergence, 31 g ai/ha
  Plant response rating, Lambsquarters: 85
[3]; Preemergence, 125 g ai/ha
  Plant response rating: 90
[3]; Preemergence, 250 g ai/ha
  Plant response rating: 90
[4]; Postemergence, 31 g ai/ha
  Plant response rating: 20
[4]; Postemergence, 62 g ai/ha
  Plant response rating: 30
[4]; Postemergence, 125 g ai/ha
  Plant response rating: 35
[4]; Postemergence, 250 g ai/ha
  Plant response rating: 50
[4]; Preemergence, 62 g ai/ha
  Plant response rating, Chamomile: 80
[4]; Preemergence, 31 g ai/ha
  Plant response rating, Chamomile: 80
[4]; Preemergence, 125 g ai/ha
  Plant response rating: 80
[4]; Preemergence, 250 g ai/ha
  Plant response rating: 85
[5]; Postemergence, 31 g ai/ha
  Plant response rating: 0
[5]; Postemergence, 62 g ai/ha
  Plant response rating: 10
[5]; Postemergence, 125 g ai/ha
  Plant response rating: 0
[5]; Postemergence, 250 g ai/ha
  Plant response rating: 0
[5]; Preemergence, 62 g ai/ha
  Plant response rating, Buckwheat, Wild: 0
[5]; Preemergence, 31 g ai/ha
  Plant response rating, Buckwheat, Wild: 0
[5]; Preemergence, 125 g ai/ha
  Plant response rating: 5
[5]; Preemergence, 250 g ai/ha
  Plant response rating: 15
[6]; 31 g ai/ha
  Plant response rating: 10
  Plant response rating, Oat, Wild: 0
[6]; 62 g ai/ha
  Plant response rating: 10
  Plant response rating, Oat, Wild: 5
[6]; 125 g ai/ha
  Plant response rating: 5
  Plant response rating, Oat, Wild: 10
[6]; 250 g ai/ha
  Plant response rating: 10
  Plant response rating, Oat, Wild: 20
[7]; 16 g ai/ha
  Plant response rating, Velvetleaf: 0
[7]; 31 g ai/ha
  Plant response rating, Velvetleaf: 0
[7]; 62 g ai/ha
  Plant response rating, Velvetleaf: 0
[7]; 125 g ai/ha
  Plant response rating, Velvetleaf: 0
[7]; 250 g ai/ha
  Plant response rating, Velvetleaf: 0
[8]; 16 g ai/ha
  Plant response rating, Pigweed, Palmer: 0
[8]; 31 g ai/ha
  Plant response rating, Pigweed, Palmer: 0
[8]; 125 g ai/ha
  Plant response rating, Pigweed, Palmer: 65
[8]; 250 g ai/ha
  Plant response rating, Pigweed, Palmer: 90
[9]; 16 g ai/ha
  Plant response rating, Crabgrass, Large: 50
[9]; 31 g ai/ha
  Plant response rating, Crabgrass, Large: 90
[9]; 62 g ai/ha
  Plant response rating, Crabgrass, Large: 95
[9]; 125 g ai/ha
  Plant response rating, Crabgrass, Large: 95
[9]; 250 g ai/ha
  Plant response rating, Crabgrass, Large: 95
[10]; 16 g ai/ha
  Plant response rating, Goosegrass: 10
[10]; 31 g ai/ha
  Plant response rating, Goosegrass: 30
[10]; 62 g ai/ha
  Plant response rating, Goosegrass: 60
[10]; 125 g ai/ha
  Plant response rating, Goosegrass: 70
[10]; 250 g ai/ha
  Plant response rating, Goosegrass: 80
